Source: the NIST ThermoML archive (doi:10.1021/acs.jced.7b00505)
Numbers after ± are expanded uncertainties. One block for each compound: values may come before it.

Legend:
[1] = 298.15 K; 101.7 kPa; Liquid mixture 1; Pendant drop shape
[2] = 298.15 K, Liquid; for viscosity: Capillary tube (Ostwald / Ubbelohde) method

SMILES: Cc1ccccc1 [toluene] + O
interfacial tension [1]: 36.2 ± 3.6 mN/m

SMILES: Cc1ccccc1 [toluene]
viscosity ([2]; 101 kPa): 0.554 ± 0.04 mPa·s | mass density ([2]; 101.7 kPa, Vibrating tube method): 860.8 ± 2 kg/m3

viscosity ([2]; 101.7 kPa): 0.8958 ± 0.041 mPa·s
SMILES: O [water]
